# Patent US20260315609A1, “MIXED VASOPRESSIN RECEPTOR AGONIST-ANTAGONIST FOR TREATING END-STAGE LIVER DISEASE AND COMPLICATIONS ASSOCIATED THEREOF” (FERRING B.V., priority 2022, published 2026)
# Where two headings read alike, the source gives them in different places. Starred links: 1 amine or outer side, 2 acyl side, 3 side chain; linkers in the order of their positions; H or OH if unused. Positions of bridges follow the written chain, without caps; N, C: chain ends. Non-standard residues stand in square brackets, D forms with d. Residues, ends and D or L forms follow the SMILES beside them. Chains are numbered I, II in the order given. *: point of attachment. isoGln = NC(=O)[C@H](CCC(=O)[*:2])N[*:1]; εLys = N[C@@H](CCCCN[*:1])C(=O)[*:2]; Dab = NCC[C@H](N)C(=O)O; PhAc = O=C(Cc1ccccc1)*
# Tests used:
# [1] = PK of Compound 1, 6-hour intravenous infusion in healthy men and women (Period 1); format: in vivo, human
# Method: The administered volume was recorded for each subject.
# (§1) In some instances, endpoints of the study were: vital signs (e.g., supine blood pressure, pulse, and body temperature), electrocardiogram (ECG) (e.g., intervals, rhythm, and morphology), cardiac function (e.g., cardiac output using echocardiography), peripheral blood flow/tissue perfusion (e.g., by skin color), venous blood gases (e.g., lactate), urinary output, clinical chemistry, hematology, hemostasis, and urinalysis, adverse events (AEs) (e.g., type, frequency, and intensity), pharmacokinetics (e.g., AUC, AUCt, AUCτ, % Extrap AUC, Cmax, tmax, CL, Vz, t1/2, MRT, Vss, F, Ae, and CLR), and metabolite pattern in plasma and urine.
# [2] = Tolerability in healthy monkeys; format: in vivo, cynomolgus monkey; settings: non-human primates
# Method: Clinical observations were made before and after dosing. IV administration
# The data reported herein were collected over 19 dosing sessions of four animals each, using a total of six monkeys. Animals were repeat dosed in a crossover design with at least one animal receiving vehicle for each round; the animal receiving vehicle was varied between rounds. A 48- to 72-h washout period was used between dosing sessions. Animals were observed by camera for ~1 h before dosing (covering the baseline period) and up to 3 h after dosing.
# [3] = Excretion of Compound 1 in urine of healthy subjects; format: in vivo, human; settings: for dose excreted: human, urine, read-out: fraction of dose excreted unchanged in urine
# Method: Urinalysis was performed locally by means of a dip-stick test. […] In case any result of the dipstick was abnormal and clinically significant, a new urine test was to be performed. If the abnormal result was confirmed, further examination could be initiated at the discretion of the Investigator. Clinically significant abnormal findings were reported as AEs. The metabolite pattern of Compound 1 in plasma and urine were measured.
# as §1
# [4] = M1 formation, subcutaneous infusion in mini-pigs; set-up: species or system mini-pig; settings: minipig, in vivo, sc, s.c. infusion
# [5] = M1 formation, single dose subcutaneous infusion in rats; format: in vivo, rat; settings: s.c. infusion
# Description: The incision for the mini-pump was on the cranial right side of the spine, a trocar or hemostats may be inserted to create a subcutaneous pocket, and the pump inserted into the subcutaneous pocket with the delivery port of the mini-pump pointing cranially. The doses were given into mid-dorsal area via surgical implantation of the pump filled with test article. Following insertion of the implant, a 4 cm×4 cm area surrounding the pump will be delineated and designated as the test site. The test site will be delineated and remarked as necessary thereafter.
# Blood samples were collected from each rat at various timepoints, including 0.25 hour (hr), 1 hr, 3 hr, 7 hr, 24 hr, 25 hr, 27 hr, and 29 hr.
# [6] = PK of Compound 1, once daily subcutaneous (bolus) injection for 5 days in healthy men and women (Period 2); format: in vivo, human
# Description: as §1
# [7] = s.c. 0.1 mg, 1st administration
# [8] = s.c. 0.1 mg, 5th administration
# [9] = s.c. 0.3 mg, 1st administration
# [10] = s.c. 0.3 mg, 5th administration
compound,measurement,setting,value
"CC[C@H](C)[C@@H]1NC(=O)[C@H](Cc2ccccc2)NC(=O)[C@@H](N)CSSC[C@@H](C(=O)N2CCC[C@H]2C(=O)N[C@@H](CCNC(=O)[C@@H](N)CCCCNC(=O)[C@H](CCCCNC(C)=O)NC(=O)CC[C@H](NC(=O)[C@H](CCCNC(=N)N)NC(=O)[C@@H]2CCCN2C(=O)[C@H](C)NC(=O)[C@H](CC(N)=O)NC(=O)[C@H](CCC(N)=O)NC(=O)[C@H](Cc2ccccc2)NC(=O)[C@@H](Cc2ccc(OC)cc2)NC(=O)Cc2ccccc2)C(N)=O)C(=O)NCC(N)=O)NC(=O)[C@H](CC(N)=O)NC(=O)[C@H](CCC(N)=O)NC1=O [Compound 1, Glycinamide, L-cysteinyl-L-phenylalanyl-L-isoleucyl-L-glutaminyl-L-asparaginyl-L-cysteinyl-L-prolyl-N4-(phenylacetyl-O-methyl-D-tyrosyl-L-phenylalanyl-L-glutaminyl-L-asparaginyl-L-alanyl-L-prolyl-L-arginyl-L-isoglutamyl-N5-acetyl-L-lysyl-L-ε-lysyl)-L-2,4-diaminobutyryl-, cyclic (1→6)-disulfide] (I: H-CFIQNCP[Dab]G-NH2 / II: PhAc-[dY](Me)FQNAPR[isoGln]K(Ac)[εLys]; disulfide I:1-I:6; amide I:8-II:C)",CL renal,"[1]; human, in vivo, iv, 0.1 mg, i.v. 0.1 mg, read-out: Renal CL, geometric mean (converted)",14.5 mL/min
same,CL renal,"[1]; human, in vivo, iv, 0.1 mg, i.v. 0.1 mg, read-out: Renal CL, mean (converted)",14.5 mL/min
same,CL renal,"[1]; human, in vivo, iv, 0.3 mg, i.v. 0.3 mg, read-out: Renal CL, geometric mean (converted)",11 mL/min
same,CL renal,"[1]; human, in vivo, iv, 0.3 mg, i.v. 0.3 mg, read-out: Renal CL, mean (converted)",11 mL/min
same,CL renal,"[1]; human, in vivo, iv, 0.45 mg, i.v. 0.45 mg, read-out: Renal CL, geometric mean (converted)",14 mL/min
same,CL renal,"[1]; human, in vivo, iv, 0.45 mg, i.v. 0.45 mg, read-out: Renal CL, mean (converted)",14.8 mL/min
same,CL renal,"[1]; human, in vivo, iv, 0.6 mg, i.v. 0.6 mg, read-out: Renal CL, geometric mean (converted)",15.5 mL/min
same,CL renal,"[1]; human, in vivo, iv, 0.6 mg, i.v. 0.6 mg, read-out: Renal CL, mean (converted)",15.8 mL/min
same,CL renal,"[1]; human, in vivo, iv, 0.9 mg, i.v. 0.9 mg, read-out: Renal CL, geometric mean (converted)",14.8 mL/min
same,CL renal,"[1]; human, in vivo, iv, 0.9 mg, i.v. 0.9 mg, read-out: Renal CL, mean (converted)",15.8 mL/min
same,Vd,"[1]; human, in vivo, iv, read-out: distribution volume (summary)",15 to 20 L
same,terminal half-life (summary),[1]; i.v.,about 1.5 hours
same,total clearance (summary),[1]; i.v.,about 13 L/h
same,"AUC, geometric mean",[1]; i.v. 0.1 mg,6.96 ng·h/mL
same,"AUC, mean",[1]; i.v. 0.1 mg,7.01 ng·h/mL
same,"Cmax, geometric mean",[1]; i.v. 0.1 mg,1.18 ng/mL
same,"Cmax, mean",[1]; i.v. 0.1 mg,1.19 ng/mL
same,"T1/2, harmonic mean",[1]; i.v. 0.1 mg,1.2 h
same,"Tot. CL, geometric mean",[1]; i.v. 0.1 mg,14.4 L/h
same,"Tot. CL, mean",[1]; i.v. 0.1 mg,14.5 L/h
same,"Vss, geometric mean",[1]; i.v. 0.1 mg,21.7 L
same,"Vss, mean",[1]; i.v. 0.1 mg,21.8 L
same,"tmax, mean",[1]; i.v. 0.1 mg,5.4 h
same,"tmax, median",[1]; i.v. 0.1 mg,5.0 h
same,"AUC, geometric mean",[1]; i.v. 0.3 mg,24.6 ng·h/mL
same,"AUC, mean",[1]; i.v. 0.3 mg,24.9 ng·h/mL
same,"Cmax, geometric mean",[1]; i.v. 0.3 mg,4.45 ng/mL
same,"Cmax, mean",[1]; i.v. 0.3 mg,4.49 ng/mL
same,"T1/2, harmonic mean",[1]; i.v. 0.3 mg,1.2 h
same,"Tot. CL, geometric mean",[1]; i.v. 0.3 mg,12.2 L/h
same,"Tot. CL, mean",[1]; i.v. 0.3 mg,12.3 L/h
same,"Vss, geometric mean",[1]; i.v. 0.3 mg,14.5 L
same,"Vss, mean",[1]; i.v. 0.3 mg,15.0 L
same,"tmax, mean",[1]; i.v. 0.3 mg,5.2 h
same,"tmax, median",[1]; i.v. 0.3 mg,5.5 h
same,"AUC, geometric mean",[1]; i.v. 0.45 mg,34.1 ng·h/mL
same,"AUC, mean",[1]; i.v. 0.45 mg,34.5 ng·h/mL
same,"Cmax, geometric mean",[1]; i.v. 0.45 mg,6.20 ng/mL
same,"Cmax, mean",[1]; i.v. 0.45 mg,6.26 ng/mL
same,"Tot. CL, geometric mean",[1]; i.v. 0.45 mg,13.2 L/h
same,"Tot. CL, mean",[1]; i.v. 0.45 mg,13.3 L/h
same,"Vss, geometric mean",[1]; i.v. 0.45 mg,15.2 L
same,"Vss, mean",[1]; i.v. 0.45 mg,15.5 L
same,"tmax, mean",[1]; i.v. 0.45 mg,5.0 h
same,"tmax, median",[1]; i.v. 0.45 mg,5.0 h
same,"AUC, geometric mean",[1]; i.v. 0.6 mg,46.5 ng·h/mL
same,"AUC, mean",[1]; i.v. 0.6 mg,47.5 ng·h/mL
same,"Cmax, geometric mean",[1]; i.v. 0.6 mg,8.32 ng/mL
same,"Cmax, mean",[1]; i.v. 0.6 mg,8.45 ng/mL
same,"Tot. CL, geometric mean",[1]; i.v. 0.6 mg,12.9 L/h
same,"Tot. CL, mean",[1]; i.v. 0.6 mg,13.2 L/h
same,"Vss, geometric mean",[1]; i.v. 0.6 mg,15.4 L
same,"Vss, mean",[1]; i.v. 0.6 mg,16.3 L
same,"tmax, mean",[1]; i.v. 0.6 mg,5.4 h
same,"tmax, median",[1]; i.v. 0.6 mg,6.0 h
same,"AUC, geometric mean",[1]; i.v. 0.9 mg,71.8 ng·h/mL
same,"AUC, mean",[1]; i.v. 0.9 mg,72.5 ng·h/mL
same,"Cmax, geometric mean",[1]; i.v. 0.9 mg,12.7 ng/mL
same,"Cmax, mean",[1]; i.v. 0.9 mg,12.8 ng/mL
same,"T1/2, harmonic mean",[1]; i.v. 0.9 mg,~1.7 h
same,"T1/2, mean",[1]; i.v. 0.9 mg,2.0 h
same,"Tot. CL, geometric mean",[1]; i.v. 0.9 mg,12.5 L/h
same,"Tot. CL, mean",[1]; i.v. 0.9 mg,12.7 L/h
same,"Vss, geometric mean",[1]; i.v. 0.9 mg,15.3 L
same,"Vss, mean",[1]; i.v. 0.9 mg,15.5 L
same,"tmax, mean",[1]; i.v. 0.9 mg,5.3 h
same,"tmax, median",[1]; i.v. 0.9 mg,6.0 h
same,dose proportionality of AUC and Cmax,"[1]; i.v., 0.1-0.9 mg",proportionality for both parameters
same,harmonic mean terminal half-life,"[1]; i.v., dose groups other than 0.6 and 0.9 mg",1.2 to 1.3 h
same,"exposure (AUC, Cmax), women versus men","[1]; i.v., also s.c.",higher exposure in women than in men
same,terminal half-life,[1]; route not stated,1.5 to 2 h
same,effect on body temperature,[2],no apparent Compound 1-related effect on body temperature
same,tolerability,[2]; single-dose SC and IV bolus,well tolerated
same,dose excreted,[3]; iv,< 10%
same,dose excreted,[3]; sc,< 5%
same,"amount excreted in urine, 4-8 hours",[3]; i.v. 0.1 mg,about 3 μg
same,"amount excreted in urine, 4-8 hours",[3]; i.v. 0.3 mg,~9 µg
same,"amount excreted in urine, 4-8 hours",[3]; i.v. 0.45 mg,~16 µg
same,"amount excreted in urine, 4-8 hours",[3]; i.v. 0.6 mg,~24 µg
same,"amount excreted in urine, 4-8 hours",[3]; i.v. 0.9 mg,~37 µg
same,"amount excreted in urine, first 4 hours",[3]; [7],about 2 μg
same,"amount excreted in urine, first 4 hours",[3]; [8],about 0.3 μg
same,"amount excreted in urine, first 4 hours",[3]; [9],~3 µg
same,"amount excreted in urine, first 4 hours",[3]; [10],~1.5 µg
same,metabolised,[4],< 20%
same,metabolised,"[5]; rat, plasma, sc, 4.8 mg/kg, rats",< 20%
same,adverse events,[5]; rats and mini-pigs,No relevant adverse events were reported
same,bioavailability,"[6]; repeated s.c. injections, versus i.v.",about 18%
same,terminal half-life (summary),[6]; s.c.,about 1 hours
same,tmax (summary),[6]; s.c.,about 0.3 hours
same,"AUC, geometric mean",[6]; [7],0.87 (22) h*ng/mL
same,"AUC, mean",[6]; [7],0.88 (0.19) h*ng/mL
same,"Cmax, geometric mean",[6]; [7],0.43 (41) ng/mL
same,"Cmax, mean",[6]; [7],0.46 (0.17) ng/mL
same,"tmax, mean",[6]; [7],0.3 (0.1) h
same,"AUC, geometric mean",[6]; [8],0.70 (3) h*ng/mL
same,"AUC, mean",[6]; [8],0.70 (0.02) h*ng/mL
same,"Cmax, geometric mean",[6]; [8],0.42 (28) ng/mL
same,"Cmax, mean",[6]; [8],0.43 (0.14) ng/mL
same,"tmax, mean",[6]; [8],0.3 (0.1) h
same,"AUC, geometric mean",[6]; [9],6.40 (109) h*ng/mL
same,"AUC, mean",[6]; [9],7.90 (5.01) h*ng/mL
same,"Cmax, geometric mean",[6]; [9],2.45 (98) ng/mL
same,"Cmax, mean",[6]; [9],2.99 (2.03) ng/mL
same,"t1/2, mean",[6]; [9],1.6 (0.7) h
same,"tmax, mean",[6]; [9],0.4 (0.5) h
same,"AUC, geometric mean",[6]; [10],2.77 (113) h*ng/mL
same,"AUC, mean",[6]; [10],3.36 (2.69) h*ng/mL
same,"Cmax, geometric mean",[6]; [10],1.42 (58) ng/mL
same,"Cmax, mean",[6]; [10],1.52 (0.79) ng/mL
same,"tmax, mean",[6]; [10],0.4 (0.2) h
same,"tmax, median",[6]; [10],24 min
same,median tmax,"[6]; s.c. 0.1 and 0.3 mg, 1st and 5th administrations",18 to 24 min
